The record followed here is patent US6518243B1, “Desleucyl glycopeptide antibiotics and methods of making same” (Trustees of Princeton University, priority 1999, dated 2003).

The subject of one experiment is S aureus ATCC 29213. As to the kind of experiment: MIC determination in BHI media, OD600. In kind it is cell-based. Conditions: BHI + 0.1% casamino acids, 18 hours at 37° C., ≧90% OD600 inhibition. An outline of the steps:
(§1)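 Starting cell density was near 5×10^5 CFU/ml, taken from exponentially growing cultures. Incubation with the DMSO dilution series ran 18 hours at 37° C.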

The next experiment deals with E. faecium ATCC 49624. Description: MIC determination in BHI media, OD600. In kind it is cell-based. As to conditions: BHI + 0.1% casamino acids, 18 hours at 37° C., ≧90% OD600 inhibition. An outline of the steps: as §1
Another experiment has as its system E. faecalis ATCC 29212. Description: MIC determination in BHI media, OD600. As to conditions: BHI + 0.1% casamino acids, 18 hours at 37° C., ≧90% OD600 inhibition. The format is cell-based. An outline of the steps: as §1
The subject of another experiment is S. Aureus ATCC 33591. As to the kind of experiment: MIC determination in BHI media, OD600. The format is cell-based. As to conditions: BHI + 0.1% casamino acids, 18 hours at 37° C., ≧90% OD600 inhibition. An outline of the steps: as §1
Experiment [1] relates to S. epidermidis (ATCC 12228). Description: Zone of inhibition screen, 96 well agar array format. The format is cell-based. On the set-up: scale not given here. As to conditions: zone of inhibition relative to 1 mg/ml stock solution of p-chlorobiphenylvancomycin. An outline of the steps: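 Panel screening of every compound against several bacterial strains, among them E. faecium ATCC 49624, was done in a 96-well agar array.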

A further experiment relates to E. faecium CL 4931. As to the kind of experiment: MIC determination in BHI media, OD600. As to conditions: BHI + 0.1% casamino acids, 18 hours at 37° C., ≧90% OD600 inhibition. The format is cell-based. Summed up:
as §1

For another experiment, the system named is E. faceium (ATCC 49624). As to the kind of experiment: Zone of inhibition screen, 96 well agar array format. The format is cell-based, E. faecium. As to conditions: zone of inhibition relative to 1 mg/ml stock solution of p-chlorobiphenylvancomycin. Here is the method:
The antibacterial activity of each of the compounds against the bacterial strains E. faceium (ATCC 49624), S. epidermidis (ATCC 12228), S. aureus (ATCC 29213), E. faecalis (CL 4877) and E. faecalis (ATCC 292121) was tested. Each of the compounds was screened in a 96 will agar array format.
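Throughout, for zone score, E. faecium ATCC 49624: score 3 means fourfold and score 4 sixteenfold the reference zone size.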

As for `C[C@H]1O[C@H](O[C@H]2[C@H](Oc3c4cc5cc3Oc3ccc(cc3Cl)[C@@H](O)[C@@H](NC(=O)[C@H](N)Cc3ccccc3)C(=O)N[C@@H](CC(N)=O)C(=O)N[C@H]5C(=O)N[C@H]3C(=O)N[C@H](C(=O)N[C@@H](C(=O)O)c5cc(O)cc(O)c5-c5cc3ccc5O)[C@H](O)c3ccc(c(Cl)c3)O4)O[C@H](CO)[C@@H](O)[C@@H]2O)C[C@@](C)(NCc2ccc(-c3ccc(Cl)cc3)cc2)[C@H]1O` [Compound 16], the MIC S. aureus ATCC 29213 with S aureus ATCC 29213 turned out to be 0.25 µg/mL. The MIC E. faecium ATCC 49624 in the experiment on E. faecium ATCC 49624 came out at 0.12 µg/mL. Also, the MIC E. faecalis ATCC 29212 in the experiment on E. faecalis ATCC 29212 was 0.25 µg/mL. The MIC S. aureus ATCC 33591 with S. Aureus ATCC 33591 was determined as 0.25 µg/mL.
On to `C[C@H]1O[C@H](O[C@H]2[C@H](Oc3c4cc5cc3Oc3ccc(cc3Cl)[C@@H](O)[C@@H](NC(=O)CN3CCNCC3)C(=O)N[C@@H](CC(N)=O)C(=O)N[C@H]5C(=O)N[C@H]3C(=O)N[C@H](C(=O)N[C@@H](C(=O)O)c5cc(O)cc(O)c5-c5cc3ccc5O)[C@H](O)c3ccc(c(Cl)c3)O4)O[C@H](CO)[C@@H](O)[C@@H]2O)C[C@@](C)(NCc2ccc(-c3ccc(Cl)cc3)cc2)[C@H]1O` [Compound 24], for which the “zone score, S. epidermidis ATCC 12228” value in experiment [1] is recorded as 2. For the same compound, the MIC S. aureus ATCC 29213 in the experiment with S aureus ATCC 29213 was found to be 0.78 µg/mL. In addition, the MIC E. faecium CL 4931 in the experiment with E. faecium CL 4931 is 25 µg/mL. In addition, the MIC S. aureus ATCC 33591 in the experiment on S. Aureus ATCC 33591 was 0.78 µg/mL. The “zone score, E. faecium ATCC 49624” value in the experiment on E. faceium (ATCC 49624) is 2.
With `CC1OC(OC2C(Oc3c4cc5cc3Oc3ccc(cc3Cl)C(O)C3NC(=O)C(NC(=O)C5NC(=O)C(CC(N)=O)NC(=O)C(NC(=O)CN5CCNCC5)C(O)c5ccc(c(Cl)c5)O4)c4ccc(O)c(c4)-c4c(O)cc(O)cc4C(C(=O)O)NC3=O)OC(CO)C(O)C2O)CC(C)(NCc2ccc(-c3ccc(Cl)cc3)cc2)C1O` (centres unmarked) [Compound 34], in the experiment with S aureus ATCC 29213, the MIC S. aureus ATCC 29213 came out at 0.78 µg/mL. For the same compound, in the experiment on E. faecium CL 4931, the MIC E. faecium CL 4931 was found to be 25 µg/mL. Besides, in the experiment with E. faecium ATCC 49624, the MIC E. faecium ATCC 49624 stood at 0.78 µg/mL. In the experiment with E. faceium (ATCC 49624), the “zone score, E. faecium ATCC 49624” value worked out at 2.
As to `CCC(C)C(N)C(=O)NC1C(=O)NC(CC(N)=O)C(=O)NC2C(=O)NC3C(=O)NC(C(=O)NC(C(=O)O)c4cc(O)cc(O)c4-c4cc3ccc4O)C(O)c3ccc(c(Cl)c3)Oc3cc2cc(c3OC2OC(CO)C(O)C(O)C2OC2CC(C)(NCc3ccc(-c4ccc(Cl)cc4)cc3)C(O)C(C)O2)Oc2ccc(cc2Cl)C1O` (centres unmarked) [Compound 37], the MIC S. aureus ATCC 29213 with S aureus ATCC 29213 is 0.39 µg/mL. Further, in the experiment with E. faecium ATCC 49624, the MIC E. faecium ATCC 49624 came out at 0.25 µg/mL. The MIC E. faecalis ATCC 29212 with E. faecalis ATCC 29212 was determined as 0.78 µg/mL. For the same compound, the MIC S. aureus ATCC 33591 with S. Aureus ATCC 33591 amounted to 0.39 µg/mL.
Turning to `CC1OC(OC2C(Oc3c4cc5cc3Oc3ccc(cc3Cl)C(O)C3NC(=O)C(NC(=O)C5NC(=O)C(CC(N)=O)NC(=O)C(NC(=O)C5CNC(=O)N5)C(O)c5ccc(c(Cl)c5)O4)c4ccc(O)c(c4)-c4c(O)cc(O)cc4C(C(=O)O)NC3=O)OC(CO)C(O)C2O)CC(C)(NCc2ccc(-c3ccc(Cl)cc3)cc2)C1O` (centres unmarked) [Compound 56-3], in the experiment on S aureus ATCC 29213, the MIC S. aureus ATCC 29213 was 0.25 µg/mL. The MIC E. faecium ATCC 49624 in the experiment with E. faecium ATCC 49624 is 0.12 µg/mL. The MIC E. faecalis ATCC 29212 in the experiment on E. faecalis ATCC 29212 is 0.25 µg/mL. Also, the MIC S. aureus ATCC 33591 in the experiment with S. Aureus ATCC 33591 came to 0.25 µg/mL.
On to `CC1OC(OC2C(Oc3c4cc5cc3Oc3ccc(cc3Cl)C(O)C3NC(=O)C(NC(=O)C5NC(=O)C(CC(N)=O)NC(=O)C(NC(=O)C(N)CCCCNC(N)=O)C(O)c5ccc(c(Cl)c5)O4)c4ccc(O)c(c4)-c4c(O)cc(O)cc4C(C(=O)O)NC3=O)OC(CO)C(O)C2O)CC(C)(NCc2ccc(-c3ccc(Cl)cc3)cc2)C1O` (centres unmarked) [Compound 61], for which the MIC S. aureus ATCC 29213 with S aureus ATCC 29213 was 0.12 µg/mL. In addition, in the experiment on E. faecium ATCC 49624, the MIC E. faecium ATCC 49624 is 0.12 µg/mL. In the experiment with E. faecalis ATCC 29212, the MIC E. faecalis ATCC 29212 is 0.25 µg/mL. For the same compound, the MIC S. aureus ATCC 33591 in the experiment with S. Aureus ATCC 33591 was 0.12 µg/mL.
For the compound `CC1OC(OC2C(Oc3c4cc5cc3Oc3ccc(cc3Cl)C(O)C3NC(=O)C(NC(=O)C5NC(=O)C(CC(N)=O)NC(=O)C(NC(=O)C(N)CCCNC(N)=O)C(O)c5ccc(c(Cl)c5)O4)c4ccc(O)c(c4)-c4c(O)cc(O)cc4C(C(=O)O)NC3=O)OC(CO)C(O)C2O)CC(C)(NCc2ccc(-c3ccc(Cl)cc3)cc2)C1O` (centres unmarked) [Compound 62], the MIC S. aureus ATCC 29213 with S aureus ATCC 29213 worked out at 0.25 µg/mL. Further, in the experiment with E. faecium ATCC 49624, the MIC E. faecium ATCC 49624 turned out to be 0.12 µg/mL. Also, the MIC E. faecalis ATCC 29212 in the experiment on E. faecalis ATCC 29212 is 0.25 µg/mL. For the same compound, the MIC S. aureus ATCC 33591 in the experiment on S. Aureus ATCC 33591 came out at 0.25 µg/mL.
